Patent US20230085307A1, “PYRIDAZINONE COMPOUND AND HERBICIDE” (NISSAN CHEMICAL CORPORATION, priority 2019, published 2023)

These molecules were tested on lambsquarters (assay: Test Example 5: herbicidal effect by foliage application, plastic box (Table 20, symbol O)). Conditions: 320 g/ha, foliage application after 14-day growth, evaluated three weeks after application.
Type: in vivo, lambsquarters (Chenopodium album)
Method in brief: (§1)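 Post-emergence foliar test in sterilized diluvial soil. Compound applied as water-diluted emulsion at a predetermined rate to 14-day-old plants; evaluation at three weeks.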
With `CCCC(=O)Oc1c(C)nn(C)c(=O)c1-c1c(-c2ccc(C)cc2)sc2c(Cl)cccc12` [4-020] the “herbicidal effect on O: lambsquarters (evaluation grade 0-5)” value was 2 (Herbicidal rate of 20% or more and less than 40%).

What follows are molecules tested on oval-leafed pondweed (assay: Test Example 2: herbicidal activity, application during weed generation under submerged conditions (Table 17, symbol C)). Conditions: AAH 320 g/ha; application during weed generation, submerged conditions.
Type: in vivo, oval-leafed pondweed (Monochoria vaginalis)
Method in brief: (§2)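 Alluvial soil in Wagner pots was flooded to 4 cm depth and sown with the three weeds together; pots were kept in a greenhouse at 25° C. to 30° C. At the one to two leaf stage, an emulsion formulation diluted in water to a set rate went onto the water surface; scored three weeks later.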
`CCCC(=O)Oc1c(C)nn(C)c(=O)c1-c1c(-c2ccc(C)cc2)sc2c(Cl)cccc12` [4-020] was tested, and the “herbicidal effect rating, C: oval-leafed pondweed” value was 0 (Herbicidal rate of 5% or less (almost no effect)).

Each molecule was assayed on velvetleaf (assay: Test Example 5: herbicidal effect by foliage application, plastic box (Table 20, symbol M)). Conditions: 320 g/ha, foliage application after 14-day growth, evaluated three weeks after application.
Type: in vivo, velvetleaf (Abutilon theophrasti)
Method in brief: as §1
`CCCC(=O)Oc1c(C)nn(C)c(=O)c1-c1c(-c2ccc(C)cc2)sc2c(Cl)cccc12` [4-020] was tested, and the “herbicidal effect on M: velvetleaf (evaluation grade 0-5)” value was 5 (Herbicidal rate of 90% or more (almost completely withered)).

Each molecule was assayed on Italian ryegrass (assay: Test Example 5: herbicidal effect by foliage application, plastic box (Table 20, symbol K)). Conditions: 320 g/ha, foliage application after 14-day growth, evaluated three weeks after application.
Type: in vivo, Italian ryegrass (Lolium multiflorum)
Method in brief: as §1
`CCCC(=O)Oc1c(C)nn(C)c(=O)c1-c1c(-c2ccc(C)cc2)sc2c(Cl)cccc12` [4-020] was tested, and the “herbicidal effect on K: Italian ryegrass (evaluation grade 0-5)” value was 4 (Herbicidal rate of 70% or more and less than 90%).

The molecules below were run on Japanese bulrush (assay: Test Example 1: herbicidal activity, application before weed generation under submerged conditions (Table 16, symbol B)). Conditions: amount of applied herbicide 320 g/ha.
Type: in vivo, Japanese bulrush (Schoenoplectus juncoides)
Method in brief: (§3)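 Submerged Wagner pots (alluvial soil, 4 cm water) sown with weed seeds and planted with 2.5-leaf rice seedlings; emulsifiable concentrate diluted in water applied to water surface on sowing day. Held in greenhouse at 25-30 °C; injury scored 0-5 by herbicidal rate after three weeks.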
In the case of `CCCC(=O)Oc1c(C)nn(C)c(=O)c1-c1c(-c2ccc(C)cc2)sc2c(Cl)cccc12` [4-020], the “Herbicidal effect, B: Japanese bulrush” value is reported as 3 (Herbicidal rate of 40% or more and less than 70%).

What follows are molecules tested on late watergrass (assay: Test Example 1: herbicidal activity, application before weed generation under submerged conditions (Table 16, symbol A)). Conditions: amount of applied herbicide 320 g/ha.
Type: in vivo, late watergrass (Echinochloa oryzicola)
Method in brief: as §3
`CCCC(=O)Oc1c(C)nn(C)c(=O)c1-c1c(-c2ccc(C)cc2)sc2c(Cl)cccc12` [4-020] was tested, and the “Herbicidal effect, A: late watergrass” value was 4 (Herbicidal rate of 70% or more and less than 90%).

What follows are molecules tested on rice flat sedge (assay: Test Example 3: herbicidal effect by foliage application, Wagner pot (Table 18, symbol E)). Conditions: 320 g/ha.
Type: in vivo, rice flat sedge (Cyperus iria)
Method in brief: (§4)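 Plants were sown in alluvial soil held under 0.1–0.5 cm standing water and grown 14 days in a greenhouse at 25–30 °C. An emulsifiable formulation, water-diluted to the set dose, was then sprayed onto the foliage, and effects were scored three weeks later using previously defined criteria.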
In the case of `CCCC(=O)Oc1c(C)nn(C)c(=O)c1-c1c(-c2ccc(C)cc2)sc2c(Cl)cccc12` [4-020], the “herbicidal effect on rice flat sedge (E)” value is reported as 5 (Herbicidal rate of 90% or more (almost completely withered)).

Each molecule was assayed on barnyard grass (assay: Test Example 3: herbicidal effect by foliage application, Wagner pot (Table 18, symbol H)). Conditions: 320 g/ha.
Type: in vivo, barnyard grass (Echinochloa crus-galli)
Method in brief: as §4
In the case of `CCCC(=O)Oc1c(C)nn(C)c(=O)c1-c1c(-c2ccc(C)cc2)sc2c(Cl)cccc12` [4-020], the “herbicidal effect on barnyard grass (H)” value is reported as 4 (Herbicidal rate of 70% or more and less than 90%).

What follows are molecules tested on chickweed (assay: Test Example 5: herbicidal effect by foliage application, plastic box (Table 20, symbol P)). Conditions: 320 g/ha, foliage application after 14-day growth, evaluated three weeks after application.
Type: in vivo, common chickweed (Stellaria media)
Method in brief: as §1
In the case of `CCCC(=O)Oc1c(C)nn(C)c(=O)c1-c1c(-c2ccc(C)cc2)sc2c(Cl)cccc12` [4-020], the “herbicidal effect on P: chickweed (evaluation grade 0-5)” value is reported as 5 (Herbicidal rate of 90% or more (almost completely withered)).

What follows are molecules tested on windgrass (assay: Test Example 5: herbicidal effect by foliage application, plastic box (Table 20, symbol L)). Conditions: 320 g/ha, foliage application after 14-day growth, evaluated three weeks after application.
Type: in vivo, windgrass (Apera spica-venti)
Method in brief: as §1
In the case of `CCCC(=O)Oc1c(C)nn(C)c(=O)c1-c1c(-c2ccc(C)cc2)sc2c(Cl)cccc12` [4-020], the “herbicidal effect on L: windgrass (evaluation grade 0-5)” value is reported as 5 (Herbicidal rate of 90% or more (almost completely withered)).

What follows are molecules tested on southern crabgrass (assay: Test Example 5: herbicidal effect by foliage application, plastic box (Table 20, symbol F)). Conditions: 320 g/ha, foliage application after 14-day growth, evaluated three weeks after application.
Type: in vivo, southern crabgrass (Digitaria ciliaris)
Method in brief: as §1
`CCCC(=O)Oc1c(C)nn(C)c(=O)c1-c1c(-c2ccc(C)cc2)sc2c(Cl)cccc12` [4-020] was tested, and the “herbicidal effect on F: southern crabgrass (evaluation grade 0-5)” value was 0 (Herbicidal rate of 5% or less (almost no effect)).

Each molecule was assayed on barnyard grass (assay: Test Example 5: herbicidal effect by foliage application, plastic box (Table 20, symbol H)). Conditions: 320 g/ha, foliage application after 14-day growth, evaluated three weeks after application.
Type: in vivo, barnyard grass (Echinochloa crus-galli)
Method in brief: as §1
With `CCCC(=O)Oc1c(C)nn(C)c(=O)c1-c1c(-c2ccc(C)cc2)sc2c(Cl)cccc12` [4-020] the “herbicidal effect on H: barnyard grass (evaluation grade 0-5)” value was 0 (Herbicidal rate of 5% or less (almost no effect)).

What follows are molecules tested on redroot pigweed (assay: Test Example 5: herbicidal effect by foliage application, plastic box (Table 20, symbol N)). Conditions: 320 g/ha, foliage application after 14-day growth, evaluated three weeks after application.
Type: in vivo, redroot pigweed (Amaranthus retroflexus)
Method in brief: as §1
For `CCCC(=O)Oc1c(C)nn(C)c(=O)c1-c1c(-c2ccc(C)cc2)sc2c(Cl)cccc12` [4-020], the “herbicidal effect on N: redroot pigweed (evaluation grade 0-5)” value was 5 (Herbicidal rate of 90% or more (almost completely withered)).

These molecules were tested on late watergrass (assay: Test Example 2: herbicidal activity, application during weed generation under submerged conditions (Table 17, symbol A)). Conditions: AAH 320 g/ha; application during weed generation, submerged conditions.
Type: in vivo, late watergrass (Echinochloa oryzicola)
Method in brief: as §2
For `CCCC(=O)Oc1c(C)nn(C)c(=O)c1-c1c(-c2ccc(C)cc2)sc2c(Cl)cccc12` [4-020], the “herbicidal effect rating, A: late watergrass” value was 0 (Herbicidal rate of 5% or less (almost no effect)).

The molecules below were run on Chinese sprangletop (assay: Test Example 3: herbicidal effect by foliage application, Wagner pot (Table 18, symbol D)). Conditions: 320 g/ha.
Type: in vivo, chinese sprangletop (Leptochloa chinensis)
Method in brief: as §4
In the case of `CCCC(=O)Oc1c(C)nn(C)c(=O)c1-c1c(-c2ccc(C)cc2)sc2c(Cl)cccc12` [4-020], the “herbicidal effect on Chinese sprangletop (D)” value is reported as 5 (Herbicidal rate of 90% or more (almost completely withered)).

What follows are molecules tested on blackgrass (assay: Test Example 5: herbicidal effect by foliage application, plastic box (Table 20, symbol J)). Conditions: 320 g/ha, foliage application after 14-day growth, evaluated three weeks after application.
Type: in vivo, blackgrass (Alopecurus myosuroides)
Method in brief: as §1
In the case of `CCCC(=O)Oc1c(C)nn(C)c(=O)c1-c1c(-c2ccc(C)cc2)sc2c(Cl)cccc12` [4-020], the “herbicidal effect on J: blackgrass (evaluation grade 0-5)” value is reported as 0 (Herbicidal rate of 5% or less (almost no effect)).

What follows are molecules tested on Japanese bulrush (assay: Test Example 2: herbicidal activity, application during weed generation under submerged conditions (Table 17, symbol B)). Conditions: AAH 320 g/ha; application during weed generation, submerged conditions.
Type: in vivo, Japanese bulrush (Schoenoplectus juncoides)
Method in brief: as §2
In the case of `CCCC(=O)Oc1c(C)nn(C)c(=O)c1-c1c(-c2ccc(C)cc2)sc2c(Cl)cccc12` [4-020], the “herbicidal effect rating, B: Japanese bulrush” value is reported as 3 (Herbicidal rate of 40% or more and less than 70%).

The molecules below were run on oval-leafed pondweed (assay: Test Example 1: herbicidal activity, application before weed generation under submerged conditions (Table 16, symbol C)). Conditions: amount of applied herbicide 320 g/ha.
Type: in vivo, oval-leafed pondweed (Monochoria vaginalis)
Method in brief: as §3
In the case of `CCCC(=O)Oc1c(C)nn(C)c(=O)c1-c1c(-c2ccc(C)cc2)sc2c(Cl)cccc12` [4-020], the “Herbicidal effect, C: oval-leafed pondweed” value is reported as 0 (Herbicidal rate of 5% or less (almost no effect)).

These molecules were tested on green foxtail (assay: Test Example 5: herbicidal effect by foliage application, plastic box (Table 20, symbol G)). Conditions: 320 g/ha, foliage application after 14-day growth, evaluated three weeks after application.
Type: in vivo, green foxtail (Setaria viridis)
Method in brief: as §1
`CCCC(=O)Oc1c(C)nn(C)c(=O)c1-c1c(-c2ccc(C)cc2)sc2c(Cl)cccc12` [4-020] was tested, and the “herbicidal effect on G: green foxtail (evaluation grade 0-5)” value was 0 (Herbicidal rate of 5% or less (almost no effect)).

What follows are molecules tested on persian speedwell (assay: Test Example 5: herbicidal effect by foliage application, plastic box (Table 20, symbol R)). Conditions: 320 g/ha, foliage application after 14-day growth, evaluated three weeks after application.
Type: in vivo, Persian speedwell (Veronica persica)
Method in brief: as §1
For `CCCC(=O)Oc1c(C)nn(C)c(=O)c1-c1c(-c2ccc(C)cc2)sc2c(Cl)cccc12` [4-020], the “herbicidal effect on R: persian speedwell (evaluation grade 0-5)” value was 5 (Herbicidal rate of 90% or more (almost completely withered)).

What follows are molecules tested on wild oat (assay: Test Example 5: herbicidal effect by foliage application, plastic box (Table 20, symbol I)). Conditions: 320 g/ha, foliage application after 14-day growth, evaluated three weeks after application.
Type: in vivo, wild oat (Avena fatua)
Method in brief: as §1
In the case of `CCCC(=O)Oc1c(C)nn(C)c(=O)c1-c1c(-c2ccc(C)cc2)sc2c(Cl)cccc12` [4-020], the “herbicidal effect on I: wild oat (evaluation grade 0-5)” value is reported as 3 (Herbicidal rate of 40% or more and less than 70%).
